In US20170022159A1, “HETEROCYCLIC AMPHOTERIC COMPOUNDS” (Eastman Chemical Company, priority 2014, published 2017):
Like-named read-outs stand apart in the source and are kept apart here.

Legend:
[1] = Foaming Properties of Surface-Active Agents (ASTM 1173-07), foam height; assay type: physicochemical
From the text: The Standard Test Method for Foaming Properties of Surface-Active Agents (ASTM 1173-07) was used to determine the foaming properties of the heterocyclic amphoteric compounds of the formula 1 described herein. This method generates foam under low-agitation conditions and is generally used for moderate- and high-foam surfactants. This test gathers data on initial foam height and foam decay. Foam decay provides information on foam stability.
The apparatus for carrying out this test includes a jacketed column and a pipet. The jacketed column serves as a receiver, while the pipet delivers the surface-active solution. Solutions of each surface-active agent were prepared. The solution of the heterocyclic amphoteric compound to be tested was added to the receiver (50 mL) and to the pipet (200 mL). The pipet was positioned above the receiver and opened. As the solution fell and made contact with the solution in the receiver, foam was generated. When the pipet was empty, the time was noted and an initial foam height was recorded. The foam height was recorded each minute for five minutes. Exact size specifications for the glassware can be found in ASTM 1173-07. The foam height results for each heterocyclic amphoteric compound 1 and representative standards are listed below in Tables 1 (0.1% concentration) and 2 (1% concentration).

[2] = Fluorimetric determination of critical micelle concentration (DPH dye); assay type: physicochemical
Protocol: The critical micelle concentration (CMC) was also determined for each compound. The CMC is the concentration of surfactant above which micelles spontaneously form. CMC is an important characteristic of a surfactant. At surfactant concentrations below the CMC, surface tension varies widely with surfactant concentration. At concentrations above the CMC, surface tension remains fairly constant. A lower CMC indicates less surfactant is needed to saturate interfaces and form micelles. Typical CMC values are less than 1 weight percent (10,000 ppm).
The fluorimetric determination of CMC described by Chattopadhyay and London (Analytical Biochemistry, Vol. 139, pp. 408-412 (1984)) was used to obtain the critical micelle concentrations found in Table 3 below. This method employs the fluorescent dye 1,6-diphenyl-1,3,5-hexatriene (DPH) in a solution of the surface-active agent. The analysis is based on differences in fluorescence upon incorporation of the dye into the interior of the micelles. As the solution exceeds CMC, a large increase in fluorescence intensity is observed.

[3] = for Percent amphoteric remaining: buffer
Protocol: The resulting mixture was placed in a 50° C. oven. Samples were taken periodically and analyzed for the amount of (4-lauroyloxy-1-methylpiperidinium-1-yl)acetate remaining by quantitative HPLC.

[4] = 1 g/L (0.1 weight %), t = 0 min
[5] = 1 g/L (0.1 weight %), t = 1 min
[6] = 1 g/L (0.1 weight %), t = 2 min
[7] = 1 g/L (0.1 weight %), t = 3 min
[8] = 1 g/L (0.1 weight %), t = 4 min
[9] = 1 g/L (0.1 weight %), t = 5 min
[10] = 10 g/L (1.0 weight %), t = 0 min
[11] = 10 g/L (1.0 weight %), t = 1 min
[12] = 10 g/L (1.0 weight %), t = 2 min
[13] = 10 g/L (1.0 weight %), t = 3 min
[14] = 10 g/L (1.0 weight %), t = 4 min
[15] = 10 g/L (1.0 weight %), t = 5 min

| Compound | Foam height (cm) at time t (min) [1, 4] [cm] | Foam height (cm) at time t (min) [1, 5] [cm] | Foam height (cm) at time t (min) [1, 6] [cm] | Foam height (cm) at time t (min) [1, 7] [cm] | Foam height (cm) at time t (min) [1, 8] [cm] | Foam height (cm) at time t (min) [1, 9] [cm] | Foam height (cm) at time t (min) [1, 10] [cm] | Foam height (cm) at time t (min) [1, 11] [cm] | Foam height (cm) at time t (min) [1, 12] [cm] | Foam height (cm) at time t (min) [1, 13] [cm] | Foam height (cm) at time t (min) [1, 14] [cm] | Foam height (cm) at time t (min) [1, 15] [cm] | CMC [2] [mM] | CMC (ppm) [2] [ppm] | other results |
| --- | --- | --- | --- | --- | --- | --- | --- | --- | --- | --- | --- | --- | --- | --- | --- |
| (4-cocoyloxymethyl-1-methylpiperidinium-1yl)acetate [Example 7] | 16.0 | 14.5 | 12.5 | 9.0 | 6.0 | 4.0 | 18.0 | 17.0 | 17.0 | 17.0 | 16.5 | 16.5 | 0.050 | 19.2 | – |
| (4-cocoyloxy-1-methylpiperidinium-1-yl)acetate [Example 3] | 16.5 | 16.0 | 15.5 | 15.5 | 15.5 | 15.5 | 18.5 | 18.0 | 17.5 | 17.0 | 17.0 | 17.0 | 0.062 | 22.9 | – |
| 3-(cocoyloxypropyldimethylammonio)acetate [Comparative Example 2, reference compound] | – | – | – | – | – | – | – | – | – | – | – | – | – | – | Percent amphoteric remaining ([3]; 0 h, pH 5): 100%; Percent amphoteric remaining ([3]; 336 h, pH 5): 74%; Percent amphoteric remaining ([3]; 1344 h, pH 5): 73%; Loss of compound (in words) ([3]; milder conditions (pH 5, 45° C.)): significant loss |
| CCCCCCCCCCCCOS(=O)(=O)[O-].[Na+] [sodium lauryl sulfate, reference compound] | – | – | – | – | – | – | – | – | – | – | – | – | 8.27 | 2386 | – |
| CCCCCCCCCCCCOS(=O)(=O)O.N [ammonium lauryl sulfate, reference compound] | – | – | – | – | – | – | – | – | – | – | – | – | 1.38 | 392 | – |
| (3-cocoyloxymethyl-1-methylpiperidinium-1-yl)acetate [Example 5] | 16.5 | 16.0 | 15.5 | 15.5 | 15.0 | 15.0 | 18.0 | 17.5 | 17.0 | 17.0 | 17.0 | 16.5 | 0.062 | 23.7 | – |

More lines, main results first:

| Foam height (cm) at time t (min) [1, 4] [cm] | Foam height (cm) at time t (min) [1, 5] [cm] | Foam height (cm) at time t (min) [1, 6] [cm] | Foam height (cm) at time t (min) [1, 7] [cm] | Foam height (cm) at time t (min) [1, 8] [cm] | Foam height (cm) at time t (min) [1, 9] [cm] | Foam height (cm) at time t (min) [1, 10] [cm] | Foam height (cm) at time t (min) [1, 11] [cm] | Foam height (cm) at time t (min) [1, 12] [cm] | Foam height (cm) at time t (min) [1, 13] [cm] | Foam height (cm) at time t (min) [1, 14] [cm] | Foam height (cm) at time t (min) [1, 15] [cm] | CMC [2] [mM] | CMC (ppm) [2] [ppm] | Compound | other results |
| --- | --- | --- | --- | --- | --- | --- | --- | --- | --- | --- | --- | --- | --- | --- | --- |
| 17.0 | 16.0 | 16.0 | 16.0 | – | 15.5 | 17.5 | 16.5 | – | 16.0 | 16.0 | 16.0 | 0.069 | 24.5 | cocamidopropyl betaine [reference compound] | – |
| 18.5 | 17.5 | 17.5 | 17.0 | 16.5 | 16.0 | 19.0 | 18.0 | 18.0 | 17.5 | 17.5 | 17.5 | 0.248 | 95.0 | CCCCCCCCCCCC(=O)OCC1CCC[N+](C)(CC(=O)[O-])C1 (centres unmarked) [Example 11, (3-lauroyloxymethyl-1-methylpiperidinium-1-yl)acetate] | – |
| – | – | – | – | – | – | – | – | – | – | – | – | 1.54 | 566.5 | (4-lauramido-1-methylpiperidinium-1-yl)acetate [Example 17] | – |
| 17.0 | 17.0 | 16.5 | 16.5 | 16.0 | 16.0 | 16.5 | 16.0 | 16.0 | 15.5 | 15.5 | 15.5 | – | – | CCCCCCCCCCCC(=O)OC1CC[N+](C)(CC(=O)[O-])CC1 (centres unmarked) [Example 9, (4-lauroyloxy-1-methylpiperidinium-1-yl)acetate] | Percent amphoteric remaining ([3]; 0 h, pH 4.5): 100%; Percent amphoteric remaining ([3]; 336 h, pH 4.5): 98%; Percent amphoteric remaining ([3]; 1008 h, pH 4.5): 96%; Percent amphoteric remaining ([3]; 1344 h, pH 4.5): 85%; Loss of compound (in words) ([3]; extended incubation in pH 4.5 water at 50° C.): limited loss |
